Values quoted from earlier work in patent publication US12052992B2, “Insecticidal composition” (CLARKE MOSQUITO CONTROL PRODUCTS, INC., priority 2017, dated 2024).

Settings: comparison value for water

## O [water]
  evaporation rate λ: 62.40 μm^2 s^−1° C.^−1
